Data on 14 compounds can be found in PubChem BioAssay (NCI).

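Following 48 hours of exposure in 96-well plates, responses at five concentrations were used to interpolate endpoints linearly. GI50 is the concentration that inhibits growth by half. TGI: total growth inhibition.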

Some test systems named below: MOLT-4 leukemia; NCI-H460 lung; HS 578T breast; U251 CNS; SK-MEL-5 melanoma; SNB-75 CNS; COLO 205 colon; RPMI-8226 leukemia; SW-620 colon; KM12 colon.
Common to all, as to assay: inhibition of tumour cell growth, NCI panel, 48 h

For `Cc1cc2ccccc2c[n+]1CC(=O)CC([O-])(C(F)(F)F)C(F)(F)F`, the TGI in the assay on MOLT-4 leukemia, in the assay with NCI-H460 lung, with HS 578T breast, with U251 CNS, in the assay on SK-MEL-5 melanoma and in the assay with SNB-75 CNS was > 100 µM in each case. In addition, the TGI in the assay on COLO 205 colon, in the assay with RPMI-8226 leukemia and with SW-620 colon was > 100 µM in each case.
With `COc1cccc(/C=C/C2=NN(c3cccc(S(=O)(=O)O)c3)C3(C2)SCC(=O)N3c2nc3ccccc3s2)c1` (configuration not stated), the TGI in the assay with MOLT-4 leukemia is 81.3 µM; in the assay with NCI-H460 lung, > 100 µM; with HS 578T breast, > 100 µM; in the assay on U251 CNS it was > 100 µM; in the assay with SK-MEL-5 melanoma, > 100 µM; with SNB-75 CNS, > 100 µM. For the same compound, the TGI in the assay on COLO 205 colon was > 100 µM; with RPMI-8226 leukemia it was 52.4 µM; with SW-620 colon, > 100 µM; in the assay on KM12 colon it was > 100 µM.
As to `CCN(CC)C(=O)CCCCCCCCC1CO1` (configuration not stated), the TGI in the assay with MOLT-4 leukemia, in the assay on NCI-H460 lung, with HS 578T breast, in the assay on U251 CNS, in the assay with SK-MEL-5 melanoma and in the assay on SNB-75 CNS was > 100 µM in each case. Moreover, the TGI with COLO 205 colon, with RPMI-8226 leukemia, with SW-620 colon and in the assay with KM12 colon was > 100 µM in each case.
With `CCCCCc1c(CCCC)c(=O)[nH]c2cc(CNCC(OC)OC)ccc12`, the TGI in the assay with MOLT-4 leukemia is 20.6 µM; in the assay with NCI-H460 lung it was 23.9 µM; in the assay on HS 578T breast, 38.7 µM; in the assay with U251 CNS it was 23.9 µM; in the assay on SK-MEL-5 melanoma it was 21 µM; in the assay on SNB-75 CNS, 29.3 µM. Further, the TGI amounted to 6.24 µM with COLO 205 colon, 13.8 µM in the assay on RPMI-8226 leukemia, 16.3 µM in the assay with SW-620 colon and 26.4 µM in the assay on KM12 colon.
Consider `c1ccc(N=NNNc2ccc(-c3nc4ccccc4[nH]3)cc2)cc1`, for which the TGI was 36.8 µM in the assay on MOLT-4 leukemia; > 100 µM in the assay with NCI-H460 lung; 89.1 µM with HS 578T breast; > 100 µM in the assay with U251 CNS; > 100 µM with SK-MEL-5 melanoma; 88.7 µM in the assay on SNB-75 CNS. Also, the TGI in the assay on COLO 205 colon is > 100 µM; with RPMI-8226 leukemia, 42.4 µM; with SW-620 colon it was > 100 µM; in the assay with KM12 colon, > 100 µM.
For `CN(C)CCCOC(=O)C(O)(Cc1ccccc1)C1CC1` (configuration not stated), the TGI in the assay on MOLT-4 leukemia, with NCI-H460 lung, in the assay with HS 578T breast, with U251 CNS, in the assay with SK-MEL-5 melanoma and with SNB-75 CNS was > 100 µM throughout. Besides, the TGI in the assay with COLO 205 colon, with RPMI-8226 leukemia, in the assay on SW-620 colon and with KM12 colon was > 100 µM in each case.
Consider `NS(=O)(=O)c1ccc(/C=C/c2cccc(O)c2)cc1`, for which the GI50 is 20 µM in the assay with MOLT-4 leukemia; 61 µM in the assay on HS 578T breast; 21.1 µM in the assay on U251 CNS; 18.9 µM in the assay with RPMI-8226 leukemia; 35.4 µM in the assay on KM12 colon. The TGI with MOLT-4 leukemia is > 100 µM; in the assay on NCI-H460 lung it was > 100 µM; in the assay on HS 578T breast it was > 100 µM; in the assay on U251 CNS, > 100 µM; in the assay on SK-MEL-5 melanoma it was 48.4 µM; in the assay on SNB-75 CNS, 99 µM. In addition, the TGI with COLO 205 colon was 45.9 µM; in the assay on RPMI-8226 leukemia it was 57.7 µM; with SW-620 colon, > 100 µM; in the assay on KM12 colon, > 100 µM.
Consider `O=C(CSC1=NCCN1)c1ccccc1`, for which the TGI with MOLT-4 leukemia, with NCI-H460 lung, in the assay with HS 578T breast, in the assay with U251 CNS, in the assay on SK-MEL-5 melanoma and in the assay with SNB-75 CNS was > 100 µM in each case. Further, the TGI in the assay with COLO 205 colon, in the assay on RPMI-8226 leukemia, with SW-620 colon and with KM12 colon was > 100 µM throughout.
For `O=C1CSC2(CCN(CCCN3c4ccccc4Sc4ccc(Cl)cc43)CC2)N1`, the TGI came out at 15.2 µM in the assay with NCI-H460 lung; 51.9 µM in the assay on HS 578T breast; 20.6 µM with U251 CNS; 23 µM in the assay on SK-MEL-5 melanoma; 20.1 µM in the assay on SNB-75 CNS; 22.5 µM with COLO 205 colon. Further, the TGI with RPMI-8226 leukemia is 18.3 µM; in the assay on SW-620 colon, 23.6 µM; with KM12 colon, 19.1 µM.
In the case of `O=C1CC(c2cccc(Cl)c2)n2cccc21` (configuration not stated), the TGI in the assay with MOLT-4 leukemia, with HS 578T breast, in the assay with U251 CNS, in the assay on SNB-75 CNS, in the assay on COLO 205 colon and in the assay with RPMI-8226 leukemia was > 100 µM each time. Besides, the TGI with SW-620 colon and in the assay with KM12 colon was > 100 µM throughout.
As to `O=C(CSc1nc2ccc(I)cc2c(=O)n1Cc1ccccc1)Nc1ccc(Br)cc1`, the TGI is > 100 µM in the assay on MOLT-4 leukemia; 62.7 µM in the assay with HS 578T breast; > 100 µM in the assay on U251 CNS; > 100 µM in the assay with SK-MEL-5 melanoma; 36.6 µM in the assay with SNB-75 CNS; > 100 µM in the assay on COLO 205 colon. Also, the TGI in the assay with RPMI-8226 leukemia, with SW-620 colon and in the assay on KM12 colon was > 100 µM in each case.
Regarding `CC(Nc1cc(Cl)cc(Cl)c1)c1ccncc1` (configuration not stated), the TGI is 69.1 µM in the assay on MOLT-4 leukemia; 73.3 µM in the assay with NCI-H460 lung; > 100 µM with HS 578T breast; 35.2 µM in the assay with U251 CNS; 28.7 µM in the assay with SK-MEL-5 melanoma; 63.1 µM with SNB-75 CNS. The TGI in the assay on COLO 205 colon is 29.8 µM; with RPMI-8226 leukemia, 42.5 µM; with SW-620 colon, 70.5 µM.
Consider `CCCCCCCCOCC1S(=O)(=O)OCCOS1(=O)=O`, for which the TGI in the assay on MOLT-4 leukemia, with NCI-H460 lung, in the assay on HS 578T breast, with U251 CNS, with SK-MEL-5 melanoma and in the assay with SNB-75 CNS was > 100 µM each time. Besides, the TGI in the assay on COLO 205 colon, with RPMI-8226 leukemia and in the assay with SW-620 colon was > 100 µM in each case.
Take `CC(=O)Nc1ccc(Nc2nc(=O)[nH]c(=O)[nH]2)cc1`: the TGI in the assay with NCI-H460 lung, in the assay on HS 578T breast, in the assay with U251 CNS, with SK-MEL-5 melanoma, with SNB-75 CNS and in the assay on COLO 205 colon was > 100 µM throughout. The TGI in the assay with RPMI-8226 leukemia, with SW-620 colon and in the assay with KM12 colon was > 100 µM each time.
